From patent US6914045B2, “Glycopeptide antibiotics” (Wyeth Holdings Corporation, priority 2001, dated 2005)
Numbered stars: 1 amine (or outer) side, 2 acyl side, 3 side chain; on linkers, the order of the positions; unused ones are H or OH. Square brackets hold non-standard residues; d marks the D form. Peptide text beside a SMILES is read from it. ξ: configuration not given here. X3 = CC1(C)OCC2OC(N3C(=N)NCC3C(O)C(N[*:1])C(=O)[*:2])C3OC(C)(C)OC3C2O1; ξEnduracididine(βξ-OH,4'ξ) = N=C1NCC(C(O)C(N)C(=O)O)N1; ξPhe(βξ-Me) = CC(c1ccccc1)C(N)C(=O)O

Columns and labels:
Test in all cases: in vitro antibacterial evaluation, MIC by broth dilution
Type in all cases: cell-based
Escherichia coli = conditions: 18 hours at 35° C.
Staphylococcus sp. = conditions: broth dilution, 18 hours at 35° C.
Summary of the method: (§1)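 MIC = lowest antibiotic concentration preventing visible growth; inoculum 5×10^5 CFU/mL; drug range 64-0.06 μg/mL; Muller-Hinton II […]; NCCLS M7-A2 guidance.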

Enterococcus sp. = conditions: broth dilution, 18 hours at 35° C.
Summary of the method: as §1

Streptococcus sp. = conditions: broth dilution, 18 hours at 35° C.
Summary of the method: as §1

CC(c1ccccc1)C1NC(=O)CNC(=O)C(CO)NC(=O)C(CC2CNC(=N)N2C2OC(CO)C(O)C(O)C2O)NC(=O)C(CC2CNC(=N)N2)NC(=O)C(Cc2ccc(OC3OC(CO)C(OC4OC(CO)C(O)C(O)C4OCc4ccc(OCc5ccccc5)cc4)C(O)C3O)cc2)NC1=O (stereo not drawn) [Example 246c]
64 mg/L: MIC Enterococcus avium (GC 4558) (Enterococcus sp.) | MIC Enterococcus avium (GC 4558) (Enterococcus sp.; strain GC 4558) | MIC Streptococcus pneumoniae (GC 1894) (Streptococcus sp.) | MIC Streptococcus pneumoniae (GC 1894) (Streptococcus sp.; strain GC 1894)
32 mg/L: MIC Escherichia coli (GC 4560) (Escherichia coli)
128 mg/L: MIC Enterococcus faecalis (GC 4553) (Enterococcus sp.) | MIC Enterococcus faecium (GC 4557) (Enterococcus sp.) | MIC Enterococcus faecalis (GC 4553) (Enterococcus sp.; strain GC 4553) | MIC Enterococcus faecium (GC 4557) (Enterococcus sp.; strain GC 4557) | MIC Streptococcus pneumoniae (ATCC 6301) (Streptococcus sp.) | MIC Streptococcus pneumoniae (GC 4565) (Streptococcus sp.) | MIC Streptococcus pneumoniae (ATCC 6301) (Streptococcus sp.; strain ATCC 6301) | MIC Streptococcus pneumoniae (GC 4565) (Streptococcus sp.; strain GC 4565)
>128 mg/L: MIC Escherichia coli (ATCC 25922) (Escherichia coli) | MIC Escherichia coli (GC 4559) (Escherichia coli) | MIC Coagulase Negative Staphylococcus (GC 4547) (Staphylococcus sp.) | MIC Coagulase Negative Staphylococcus (GC 4548) (Staphylococcus sp.) | MIC Coagulase Negative Staphylococcus (GC 4549) (Staphylococcus sp.) | MIC Coagulase Negative Staphylococcus (GC 4551) (Staphylococcus sp.) | MIC Coagulase Negative Staphylococcus (GC 6257) (Staphylococcus sp.) | MIC Staphylococcus aureus (ATCC 29213) (Staphylococcus sp.) | MIC Staphylococcus aureus (GC 1131) (Staphylococcus sp.) | MIC Staphylococcus aureus (GC 3051) (Staphylococcus sp.) | MIC Staphylococcus aureus (GC 3053) (Staphylococcus sp.) | MIC Staphylococcus aureus (GC 4541) (Staphylococcus sp.) | MIC Staphylococcus aureus (GC 4542) (Staphylococcus sp.) | MIC Staphylococcus aureus (GC 4544) (Staphylococcus sp.) | MIC Staphylococcus aureus (GC 4545) (Staphylococcus sp.) | MIC Staphylococcus aureus-SMITH (GC 4543) (Staphylococcus sp.) | MIC Staphylococcus haemolyticus (GC 4546) (Staphylococcus sp.) | MIC Staphylococcus aureus (ATCC 29213) (Staphylococcus sp.; strain ATCC 29213) | MIC Staphylococcus aureus (GC 1131) (Staphylococcus sp.; strain GC 1131) | MIC Staphylococcus aureus (GC 3051) (Staphylococcus sp.; strain GC 3051) | MIC Staphylococcus aureus (GC 3053) (Staphylococcus sp.; strain GC 3053) | MIC Staphylococcus aureus (GC 4541) (Staphylococcus sp.; strain GC 4541) | MIC Staphylococcus aureus (GC 4542) (Staphylococcus sp.; strain GC 4542) | MIC Staphylococcus aureus-SMITH (GC 4543) (Staphylococcus sp.; strain GC 4543) | MIC Staphylococcus aureus (GC 4544) (Staphylococcus sp.; strain GC 4544) | MIC Staphylococcus aureus (GC 4545) (Staphylococcus sp.; strain GC 4545) | MIC Staphylococcus haemolyticus (GC 4546) (Staphylococcus sp.; strain GC 4546) | MIC Coagulase Negative Staphylococcus (GC 4547) (Staphylococcus sp.; strain GC 4547) | MIC Coagulase Negative Staphylococcus (GC 4548) (Staphylococcus sp.; strain GC 4548) | MIC Coagulase Negative Staphylococcus (GC 4549) (Staphylococcus sp.; strain GC 4549) | MIC Coagulase Negative Staphylococcus (GC 4551) (Staphylococcus sp.; strain GC 4551) | MIC Coagulase Negative Staphylococcus (GC 6257) (Staphylococcus sp.; strain GC 6257) | MIC Enterococcus faecalis (ATCC 29212) (Enterococcus sp.) | MIC Enterococcus faecalis (GC 2242) (Enterococcus sp.) | MIC Enterococcus faecalis (GC 2691) (Enterococcus sp.) | MIC Enterococcus faecalis (GC 3059) (Enterococcus sp.) | MIC Enterococcus faecalis (GC 4552) (Enterococcus sp.) | MIC Enterococcus faecalis (GC 4554) (Enterococcus sp.) | MIC Enterococcus faecalis (GC 6189) (Enterococcus sp.) | MIC Enterococcus faecium (GC 2243) (Enterococcus sp.) | MIC Enterococcus faecium (GC 4556) (Enterococcus sp.) | MIC Enterococcus faecalis (ATCC 29212) (Enterococcus sp.; strain ATCC 29212) | MIC Enterococcus faecalis (GC 2242) (Enterococcus sp.; strain GC 2242) | MIC Enterococcus faecium (GC 2243) (Enterococcus sp.; strain GC 2243) | MIC Enterococcus faecalis (GC 2691) (Enterococcus sp.; strain GC 2691) | MIC Enterococcus faecalis (GC 3059) (Enterococcus sp.; strain GC 3059) | MIC Enterococcus faecalis (GC 4552) (Enterococcus sp.; strain GC 4552) | MIC Enterococcus faecalis (GC 4554) (Enterococcus sp.; strain GC 4554) | MIC Enterococcus faecium (GC 4556) (Enterococcus sp.; strain GC 4556) | MIC Enterococcus faecalis (GC 6189) (Enterococcus sp.; strain GC 6189) | MIC Streptococcus agalactiae (GC 4564) (Streptococcus sp.) | MIC Streptococcus pyogenes (GC 4563) (Streptococcus sp.) | MIC Streptococcus pyogenes (GC 4563) (Streptococcus sp.; strain GC 4563) | MIC Streptococcus agalactiae (GC 4564) (Streptococcus sp.; strain GC 4564)

CC(c1ccccc1)C1NC(=O)CNC(=O)C(CO)NC(=O)C(C(O)C2CNC(=N)N2C2OC3COC(C)(C)OC3C3OC(C)(C)OC32)NC(=O)C(C(O)C2CNC(=N)N2)NC(=O)C(Cc2ccc(O)cc2)NC1=O (stereo not drawn) [Example 247] (cyclo(G[ξPhe(βξ-Me)]Y[ξEnduracididine(βξ-OH,4'ξ)][X3]S); configuration not given here)
>64 mg/L: MIC Escherichia coli (ATCC 25922) (Escherichia coli) | MIC Escherichia coli (GC 4559) (Escherichia coli) | MIC Escherichia coli (GC 4560) (Escherichia coli) | MIC Coagulase Negative Staphylococcus (GC 4547) (Staphylococcus sp.) | MIC Coagulase Negative Staphylococcus (GC 4548) (Staphylococcus sp.) | MIC Coagulase Negative Staphylococcus (GC 4549) (Staphylococcus sp.) | MIC Coagulase Negative Staphylococcus (GC 4551) (Staphylococcus sp.) | MIC Coagulase Negative Staphylococcus (GC 6257) (Staphylococcus sp.) | MIC Staphylococcus aureus (ATCC 29213) (Staphylococcus sp.) | MIC Staphylococcus aureus (GC 1131) (Staphylococcus sp.) | MIC Staphylococcus aureus (GC 3051) (Staphylococcus sp.) | MIC Staphylococcus aureus (GC 3053) (Staphylococcus sp.) | MIC Staphylococcus aureus (GC 4541) (Staphylococcus sp.) | MIC Staphylococcus aureus (GC 4542) (Staphylococcus sp.) | MIC Staphylococcus aureus (GC 4544) (Staphylococcus sp.) | MIC Staphylococcus aureus (GC 4545) (Staphylococcus sp.) | MIC Staphylococcus aureus-SMITH (GC 4543) (Staphylococcus sp.) | MIC Staphylococcus haemolyticus (GC 4546) (Staphylococcus sp.) | MIC Enterococcus avium (GC 4558) (Enterococcus sp.) | MIC Enterococcus faecalis (ATCC 29212) (Enterococcus sp.) | MIC Enterococcus faecalis (GC 2242) (Enterococcus sp.) | MIC Enterococcus faecalis (GC 2691) (Enterococcus sp.) | MIC Enterococcus faecalis (GC 3059) (Enterococcus sp.) | MIC Enterococcus faecalis (GC 4552) (Enterococcus sp.) | MIC Enterococcus faecalis (GC 4553) (Enterococcus sp.) | MIC Enterococcus faecalis (GC 4554) (Enterococcus sp.) | MIC Enterococcus faecalis (GC 6189) (Enterococcus sp.) | MIC Enterococcus faecium (GC 2243) (Enterococcus sp.) | MIC Enterococcus faecium (GC 4556) (Enterococcus sp.) | MIC Enterococcus faecium (GC 4557) (Enterococcus sp.) | MIC Streptococcus agalactiae (GC 4564) (Streptococcus sp.) | MIC Streptococcus pneumoniae (ATCC 6301) (Streptococcus sp.) | MIC Streptococcus pneumoniae (GC 1894) (Streptococcus sp.) | MIC Streptococcus pneumoniae (GC 4565) (Streptococcus sp.) | MIC Streptococcus pyogenes (GC 4563) (Streptococcus sp.)
